# Paper PMC6154738, “Anti-Onchocerca and Anti-Caenorhabditis Activity of a Hydro-Alcoholic Extract from the Fruits of Acacia nilotica and Some Proanthocyanidin Derivatives” (Molecules : A Journal of Synthetic Chemistry and Natural …, 2017)
# Like-named read-outs stand apart in the source and are kept apart here.
# What was measured:
# O. ochengi males = assay: microbe, parasite or virus in culture; set-up: species or system Onchocerca ochengi
# From the text: The adult male worms were isolated as previously describe by Ndjonka et al. from fresh pieces of cattle skin (cow-udder) with palpable nodules obtained from the communal slaughter house of Ngaoundere in the Adamawa region of Cameroon. Nodules removed from the skin were brought to the laboratory, washed, drained and sterilized with 70% ethanol for dissection. After dissection of nodules, O. ochengi were extracted, isolated and washed three times in sterile phosphate-buffered saline (PBS). To analyze the anthelmintic activity of extract, fractions and pure compounds, the worms were incubated at 37 °C.
# (§1) Adult worms (six individuals per well for males and one per well for the female) and Mf were washed twice and were subsequently transferred to RPMI-1640 medium supplemented with L-glutamine, 100 U/mL penicillin and 100 µg/mL streptomycin and incubated at 37 °C in 24-well plates (96-well plate for Mf) with different concentrations of the drugs tested. Worm mortality was checked by observation under the binocular microscope after 48 h. After shaking, immotile and fully-elongated worms were considered to be dead. All tests were done in three independent triplicate determinations.
# O. ochengi females = assay: microbe, parasite or virus in culture; set-up: species or system Onchocerca ochengi
# Method: The adult female worms were isolated by digestion of the nodules with collagenase at 37 °C. The female worms were cultured in a CO2-incubator [67]. For anthelmintic activity, they were incubated with the crude extracts, fractions and pure compounds.
# as §1
# O. ochengi microfilariae = assay: microbe, parasite or virus in culture; set-up: species or system Onchocerca ochengi
# Method: Microfilariae were isolated as describe by Cho-Ngwa et al. and Ndjonka et al.. About 10 skin snips were obtained from different locations of the skin. The skin snips were then incubated at 37 °C in PBS to let Mf emerge. The highly motile Mf were concentrated by centrifugation at 400× g for 10 min and quantified. The Mf were incubated at 37 °C with the crude extract, fractions and pure compounds.
# as §1
# [1] = tested on: C. elegans CB211 (lev-1(e211) IV); assay: microbe, parasite or virus in culture; conditions: Caenorhabditis elegans, 48 h
# Method: (§2) All strains were obtained from the Caenorhabditis Genetic Centre (CGC, Minneapolis, MN, USA). Strains were maintained at 20 °C on nematode growth medium (NGM). All worms were age-synchronized and obtained from eggs that were isolated by bleaching.
# (§3) Young adult (L4 stage) worms were used to assess drug lethality. Monitored endpoint was 48 h mortality. Tests were performed in 24-well plates. Five hundred (500) microliters of test solution, which is M9-buffer (3 g KH2PO4, 6 g Na2HPO4, 5 g NaCl, 0.25 g MgSO4.7H2O, in 1 L of water after been autoclaved supplemented with 2% glucose, 0.5% cholesterol), were distributed in 24-well plates. The volume of M9-buffer equivalent to the drug to be added for each drug final concentration (in each test, three to six concentrations were used) was removed. Untreated worms in M9-buffer were used as negative control. […] Crude extract fraction (stock solution at 100 mg/mL) and pure compound (stock solution at 100 mg/mL) previously dissolved in M9-buffer were then added in well plates at increasing concentration (varying from 0 to 1000 or 1500 µg/mL for extract and fractions; 0 to 100 or 150 µg/mL). The young adult (10 to 15 ± 2) from the axenic culture (without food source) were then added at the test solution. […] Treatments were replicated three times.
# [2] = tested on: C. elegans CB3474 (ben-1(e1880) III); assay: microbe, parasite or virus in culture; conditions: Caenorhabditis elegans, 48 h
# Method: as §2, §3
# [3] = tested on: C. elegans DA1316 (avr-14(ad1302) I avr-15(ad1051) glc-1(pk54)); assay: microbe, parasite or virus in culture; conditions: for LC50: Caenorhabditis elegans, 48 h
# Method: as §2, §3
# C. elegans N2 Bristol WT = assay: microbe, parasite or virus in culture
# Method: as §2, §3
# [4] = tested on: C. elegans VC722 (glc-2(ok1047) I); assay: microbe, parasite or virus in culture; conditions: for LC50: Caenorhabditis elegans, 48 h
# Method: as §2, §3
# [5] = tested on: C. elegans ZZ16 (lev-9(x16) X); assay: microbe, parasite or virus in culture; conditions: Caenorhabditis elegans, 48 h
# Method: as §2, §3
# [6] = In vitro cytotoxicity (MTT) and CC50 determination; format: cell-based; conditions: human
# Method: (§4) Cell culture: […] cells at Passage 70 were kindly provided by Prof. Hensel, Institute of Pharmaceutical Biology and Phytochemistry, University of Münster, and were cultured as previously describe by Zumdick et al..
# (§5) Cytotoxicity test: The cytotoxicity assays were performed according to the method of Rahman et al.. Briefly, 1.5 × 10^4 viable cells/well were seeded in a 96-well plate and incubated for 24 to 48 h. […] DMEM samples were used as the negative control. […] The medium was removed, and formazan, generated by the activity of dehydrogenases, was solubilized with 70 µL of acidified isopropanol (0.4 M HCl). The amount of MTT-formazan that is directly proportional to the number of living cells was determined by measuring the optical density (OD) at 540 nm using a spectrophotometer. All controls used were treated equally. As control and to determine 100% growth, Caco-2 cells were grown in the absence of drugs so as to calculate cell viability. All determinations were performed in triplicate. […] The selectivity index (SI) values were calculated as the ratio: SI = CC50 of drug on Caco2/LC50 of drug on worm.
# O. ochengi [7] = assay: Anti-Onchocerca activity, all forms of the parasite (summary statements); conditions: read-out: LC50 against O. ochengi (all three forms)
# Method: as §1
# Wistar rats = assay: Acute oral toxicity on rats
# From the text: Adult Wistar rats (Rattus norvegicus), males aged 7 to 8 weeks and weighing 150 to 200 g, used for the experiments were obtained from LANAVET (Laboratoire National Vétérinaire, Garoua, Cameroon). The rats were acclimatized for one week in the Veterinary Research Laboratory of the Institute of Agricultural Research for Development, Wakwa, Cameroon, before initiating experiments. Animals were housed in groups of three (one group for the negative control, six groups for each drug at the first phase, six others at the second phase) under ambient temperatures (23 °C ± 1 °C) with relative humidity 55 ± 5% and 12 h light/dark cycle in polycarbonate cages. […] They were monitored by a veterinarian for health status.
# Acute oral toxicity (LD50, that is the dose that kills 50% of animals of the tested group) was measured using the method of the OECD guidelines for the testing of chemicals [56] following the European Community guidelines for the protection of animals used in experiments [69] and respecting the 3Rs (Replacement, Refinement, Reduction) [70]. Drugs in distilled water were orally administered separately at doses of 10 mg/kg, 100 mg/kg and 1000 mg/kg body weight. The negative controls were distilled water-administered rats. They were given to three groups of three rats each and observed for 24 h. […] The test was done at a single oral dose for each rat in a 5 mL/kg volume. The experimental animals were starved for 24 h before and 4 h after treatment. […] The appearance of toxic symptoms, such as behavioral changes, locomotion, convulsions and mortality, was observed and recorded. Animals were observed constantly for the first 30 min after administration and, thereafter, every 4 h up to 24 h and, subsequently, once a day for up to 14 days.
# Caco-2 cells [8] = assay: In vitro cytotoxicity (MTT) and CC50 determination; format: cell-based
# Method: as §4, §5
# O. ochengi [9] = conditions: read-out: LC50 on O. ochengi; stated in the introduction, no reference given; cited from earlier work
# Caco-2 cells [10] = tested on: Caco-2 cells; set-up: method as in PMID 22776719; conditions: at 127 µg/mL; cited from earlier work
# [11] = Onchocerca ochengi, 48 h, read-out: LC50/48 h
# [12] = Onchocerca ochengi, 48 h, read-out: LC50/48 h (in brackets)
# [13] = SI = CC50 on Caco-2/LC50 on worm
# [14] = read-out: LC50/48 h (in brackets)
# [15] = Caco-2, CC50 after 48 h calculated in µM, read-out: Cytotoxicity CC50, Caco-2 (in brackets) (converted)
compound,measurement,setting,value
"O=C(OC1Cc2c(O)cc(O)cc2OC1c1ccc(O)c(O)c1)c1cc(O)c(O)c(O)c1 (single isomer, unassigned; (-)) [ECG, (−)-epicatechin-3-O-gallate]",LC50,O. ochengi males; [11],2.1 ± 0.3 µg/mL
same,LC50,O. ochengi males; [12],4.7 µM
same,Selectivity Index (SI) O. ochengi Males,O. ochengi males; [13],32.2
same,LC50,O. ochengi females; [11],2.1 ± 0.6 µg/mL
same,LC50,O. ochengi females; [12],4.7 µM
same,Selectivity Index (SI) O. ochengi Females,O. ochengi females; [13],32.2
same,LC50,O. ochengi microfilariae; [11],1 ± 0.4 µg/mL
same,LC50,O. ochengi microfilariae; [12],2.2 µM
same,Selectivity Index (SI) O. ochengi Microfilariae,O. ochengi microfilariae; [13],67.6
same,LC50,[1]; read-out: LC50/48 h,41.7 ± 1.2 µg/mL
same,LC50,[1]; [14],89.3 µM
same,LC50,[2]; read-out: LC50/48 h,19.6 ± 0.8 µg/mL
same,LC50,[2]; [14],44.2 µM
same,LC50,[3]; read-out: LC50/48 h,27.4 ± 1.1 µg/mL
same,LC50,[3]; [14],61.9 µM
same,LC50,"C. elegans N2 Bristol WT; Caenorhabditis elegans, 48 h, read-out: LC50/48 h",33.8 ± 2.7 µg/mL
same,Selectivity Index (SI) C. elegans Wild Type,C. elegans N2 Bristol WT; [13],2.0
same,LC50,[4]; read-out: LC50/48 h,27.2 ± 1.4 µg/mL
same,LC50,[4]; [14],61.4 µM
same,LC50,[5]; read-out: LC50/48 h,39.5 ± 0.9 µg/mL
same,LC50,[5]; [14],76.4 µM
same,CC50 at 48 h,[6]; [15],153 µM
same,CC50 at 72 h,"[6]; Caco-2, MTT, read-out: Cytotoxicity, means CC50 ± SD, Caco-2",67.6 ± 0.5 µg/mL
same,LC50,O. ochengi [7],< 2.5 µg/mL
same,Mortality of rats: rat number end/start,"Wistar rats; Phase 1, 10 mg/kg single oral dose",0/3
same,Mortality of rats: rat number end/start,"Wistar rats; Phase 1, 100 mg/kg single oral dose",0/3
same,Mortality of rats: rat number end/start,"Wistar rats; Phase 1, 1000 mg/kg single oral dose",0/3
same,Mortality of rats: rat number end/start,"Wistar rats; Phase 2, 1500 mg/kg single oral dose",0/3
same,Mortality of rats: rat number end/start,"Wistar rats; Phase 2, 3000 mg/kg single oral dose",0/3
same,Mortality of rats: rat number end/start,"Wistar rats; Phase 2, 5000 mg/kg single oral dose",0/3
Ivermectin [reference compound],LC50,"O. ochengi males; O. ochengi males, 48 h, calculated in µM, read-out: LC50/48 h (in brackets) (converted)",1.3 µM
same,LC50/48 h,"O. ochengi males; O. ochengi males, 48 h, mean ± SD",1.2 ± 0.5 µg/mL
same,LC50,"O. ochengi females; O. ochengi females, 48 h, calculated in µM, read-out: LC50/48 h (in brackets) (converted)",1.7 µM
same,LC50/48 h,"O. ochengi females; O. ochengi females, 48 h, mean ± SD",1.5 ± 0.3 µg/mL
same,LC50,"O. ochengi microfilariae; O. ochengi microfilariae, 48 h, calculated in µM, read-out: LC50/48 h (in brackets) (converted)",1.7 µM
same,LC50/48 h,"O. ochengi microfilariae; O. ochengi microfilariae, 48 h, mean ± SD",1.5 ± 0.0 µg/mL
same,LC50/48 h,[3]; C. elegans DA1316 (ivermectin-resistant),>100 µg/mL
same,LC50/48 h,"C. elegans N2 Bristol WT; C. elegans WT, 48 h, mean ± SD",1.2 ± 0.1 µg/mL
same,LC50,"C. elegans N2 Bristol WT; read-out: LC50/48 h (in brackets), C. elegans WT, 48 h, calculated in µM",1.3 µM
same,LC50/48 h,[4]; C. elegans VC722 (ivermectin-resistant),>100 µg/mL
same,CC50,Caco-2 cells [8]; [15],140 µM
same,"Cytotoxicity, means CC50 ± SD, Caco-2","Caco-2 cells [8]; Caco-2, MTT",28.7 ± 0.7 µg/mL
same,LC50,O. ochengi [9],1.7 µM
procyanidin,Reduction of cell viability,Caco-2 cells [10],15%
